# According to patent US20250114396A1, “CHLORITE USES FOR STEM CELLS” (The Regents of the University of California, priority 2023, published 2025):
# Read-outs that look alike come from different tables or passages of the source.
# Experiments:
# patients with ALS = tested on: patients with ALS
# Source text: Non-limiting examples of measures of clinical response include the ALS Functional Rating Scale Revised (ALSFRS-R) and respiratory vital capacity.
# Stem cell reprogramming for long term disease regulation is evidenced by finding normalization of biomarkers for at least one month after the last dose in the 6-month administration procedure.
# A major subset of ALS patients show evidence for ongoing inflammation that potentially contributes to disease progression.
# CD 34+ HSCs = details: LPS-activated HSC (10 ng/mL LPS overnight), single treatment with NP001 300 μM, grown 3 days, RNAseq
# Experimental: CD 34+ HSCs were isolated from normal human adult bone marrow (>95% pure) and were either stimulated by 10 ng/mL LPS overnight or control medium. NP001 was added (300 μM; equivalent to phase 2 dose in humans) to washed HSC controls and LPS-activated HSC and the cells grown for 3 days in HSC medium. RNAseq with 100 M reads was performed on all cells and pathway analysis was performed.
# By comparison with non-LPS-activated cells, LPS-activated pathways with p<10-15 were defined. […] NP001-treated, LPS-activated HSC gene expression pathways were evaluated in parallel. […] In addition, LPS-activated HSC were evaluated for factors (e.g., protein and genes), that were modulated following treatment with NP001.
# [1] = ALS patients with plasma CRP levels >1.13 mg/L
# [2] = clinical responders, 6-month pulse therapy, at least one month after last dose
# [3] = mechanism of action studies in patients with ALS
substance,measurement,setting,value
sodium chlorite [NP001],disease progression,patients with ALS; [1],slowing disease progression
same,innate immune function,patients with ALS; [1],restore innate immune function
same,"plasma epidermal growth factor (EGF), long term change",patients with ALS; [2],upregulation
same,"plasma hepatocyte growth factor (HGF), long term change",patients with ALS; [2],downregulation
same,"plasma interleukin-10 (IL-10), long term change",patients with ALS; [2],upregulation
same,"plasma interleukin-18 (IL-18), long term change",patients with ALS; [2],downregulation
same,"plasma lipopolysaccharide (LPS), long term change",patients with ALS; [2],downregulation
same,"plasma lipopolysaccharide binding protein (LBP), long term change",patients with ALS; [2],downregulation
same,"plasma neopterin, long term change",patients with ALS; [2],upregulation
same,"plasma soluble CD163 (sCD163), long term change",patients with ALS; [2],downregulation
same,8 biomarkers associated with microbial translocation,"patients with ALS; intermittent dosing (3 days/month), patients whose disease slowed",prolonged regulation
same,disease progression,patients with ALS; [3],slowing disease progression
same,innate immune function,patients with ALS; [3],restore innate immune function
same,HSC gene expression pathways stimulated by LPS,CD 34+ HSCs,reversed
